Experimental data as given in patent US20240228497A1, “Pyrrolo[2, 3-b]Pyrazine-Based Bifunctional Compounds as HPK1 Degraders and the Use Thereof” (BeiGene, Ltd., priority 2021, published 2024).

Experiments:
[1] = biological target: T1, HPK1 kinase (aa1-346, Life Technologies) (Homo sapiens, UniProt Q92918); test: HPK Kinase Activity Assay at 1 mM ATP (TR-FRET); format: biochemical; details: HPK1 kinase 40 nM, 0.5 μM STK1 substrate, 60 min preincubation, read-out: Enzymatic activity IC50
T1 construct: HPK1 kinase (aa1-346, Life Technologies); purchased Life Technologies
T1 sequence (Q92918 1-346): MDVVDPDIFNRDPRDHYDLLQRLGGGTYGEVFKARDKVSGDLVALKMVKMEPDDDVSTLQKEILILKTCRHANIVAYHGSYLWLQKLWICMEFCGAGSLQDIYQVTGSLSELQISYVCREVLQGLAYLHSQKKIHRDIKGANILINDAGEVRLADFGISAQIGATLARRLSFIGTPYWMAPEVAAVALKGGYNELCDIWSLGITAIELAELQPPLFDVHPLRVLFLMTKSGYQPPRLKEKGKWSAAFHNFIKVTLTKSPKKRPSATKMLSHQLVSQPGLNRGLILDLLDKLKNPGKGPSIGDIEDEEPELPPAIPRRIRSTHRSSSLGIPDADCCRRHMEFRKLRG
Description: HPK Kinase Activity Assay at 1 mM ATP
Compounds disclosed herein were tested for inhibition of HPK1 kinase (aa1-346, Life Technologies) activity in assays based on the time-resolved fluorescence-resonance energy transfer (TR-FRET) methodology. The assays were carried out in 384-well low volume black plates in a reaction mixture containing HPK1 kinase (40 nM), 1 mM ATP, 0.5 μM STK1 substrate and 0-10 μM compound in buffer containing 50 mM HEPES, 0.01% BSA, 0.1 mM Orthovanadate, 10 mM MgCl2, 1 mM DTT, pH=7.0, 0.005% Tween-20. The kinase was incubated with the compounds disclosed herein or DMSO for 60 minutes at room temperature and the reaction was initiated by the addition of ATP and STK1 substrate. After reaction at room temperature for 120 minutes, an equal volume of stop/detection solution was added according to the manufacture's instruction (CisBio). The stop/detection solution contained STK Antibody—Cryptate and XL665-conjugated streptavidin in Detection Buffer. The TR-FRET signals (ratio of fluorescence emission at 665 nm over emission at 620 nm with excitation at 337 nm wavelength) were recorded on a PHERAstar FS plate reader (BMG Labtech). Phosphorylation of STK1 substrate led to the binding of STK Antibody—Cryptate to the biotinylated STK1 substrate, which places fluorescent donor (Eu^3+ crypate) in close proximity to the accepter (Streptavidin-XL665), thus resulting in a high degree of fluorescence resonance energy transfer. The inhibition of HPK1 in presence of increasing concentrations of compounds was calculated based on the ratio of fluorescence at 665 nm to that at 620 nm. IC50 determination was performed by fitting the curve of percent inhibition versus the log of the inhibitor concentration using Dotmatics.

[2] = system: pSLP76 (S376) level in Jurkat cell line; test: Cellular pSLP76(S376) HTRF Assay in Jurkat cells; format: cell-based; details: 2 h compound treatment, stimulated with 0.05 μg/mL anti-human CD3 (OKT3) for 30 min
Description: Cellular pSLP76(S376) HTRF Assay
Jurkat cell line was used in this study. Cells were maintained in RPMI 1640 supplemented with heat-inactivated 10% fetal bovine serum (Thermo Fisher), 50 units/mL penicillin and streptomycin (Thermo Fisher) and kept at 37° C. in a humidified atmosphere of 5% CO2 in air. Cells were reinstated from frozen stocks that were laid down within 30 passages from the original cells purchased. After cell starvation in the assay buffer (RPMI 1640 supplemented with heat-inactivated 0.1% fetal bovine serum) for 18 hours, cells were seeded into a round bottom 96-well plate at 150,000 cells per well density. Cells were treated with a 9-point dilution series of test compounds. The final compound concentration is from 0 to 2 μM. After 2 h compound treatment, cells were stimulated with 0.05 μg/mL anti-human CD3 (OKT3, Bioxcell) for 30 min at 37° C. Then the cells were lysed, and the pSLP76 (S376) level in the cell lysates was detected by HTRF kit (Cisbio). A total of 16 μL of cell lysate from each well of a 96-well plate was transferred to a 384-well small volume white assay plate. Lysate from each well was incubated with 2 μL of Eu^3+-cryptate (donor) labeled anti-phospho-SLP76 and 2 μL of D2 (acceptor) labeled anti-phospho-SLP76 antibodies (Cisbio) overnight in dark at room temperature. FRET signals (655 nm) were measured using a PHERAstar FSX reader (BMG Labtech). IC50 determination was performed by fitting the curve of percent inhibition versus the log of the inhibitor concentration using Dotmatics.

HPK1 protein [3] = biological target: T2, HPK1 protein (Homo sapiens, UniProt Q92918); test: HPK1 Protein Degradation Assay in Human PBMC (Western Blot); format: cell-based; details: 24 h compound incubation
T2 construct: host or cells: human PBMC (CD4+ and CD8+ T cells gated in the FACS assay)
T2 sequence (Q92918 whole entry): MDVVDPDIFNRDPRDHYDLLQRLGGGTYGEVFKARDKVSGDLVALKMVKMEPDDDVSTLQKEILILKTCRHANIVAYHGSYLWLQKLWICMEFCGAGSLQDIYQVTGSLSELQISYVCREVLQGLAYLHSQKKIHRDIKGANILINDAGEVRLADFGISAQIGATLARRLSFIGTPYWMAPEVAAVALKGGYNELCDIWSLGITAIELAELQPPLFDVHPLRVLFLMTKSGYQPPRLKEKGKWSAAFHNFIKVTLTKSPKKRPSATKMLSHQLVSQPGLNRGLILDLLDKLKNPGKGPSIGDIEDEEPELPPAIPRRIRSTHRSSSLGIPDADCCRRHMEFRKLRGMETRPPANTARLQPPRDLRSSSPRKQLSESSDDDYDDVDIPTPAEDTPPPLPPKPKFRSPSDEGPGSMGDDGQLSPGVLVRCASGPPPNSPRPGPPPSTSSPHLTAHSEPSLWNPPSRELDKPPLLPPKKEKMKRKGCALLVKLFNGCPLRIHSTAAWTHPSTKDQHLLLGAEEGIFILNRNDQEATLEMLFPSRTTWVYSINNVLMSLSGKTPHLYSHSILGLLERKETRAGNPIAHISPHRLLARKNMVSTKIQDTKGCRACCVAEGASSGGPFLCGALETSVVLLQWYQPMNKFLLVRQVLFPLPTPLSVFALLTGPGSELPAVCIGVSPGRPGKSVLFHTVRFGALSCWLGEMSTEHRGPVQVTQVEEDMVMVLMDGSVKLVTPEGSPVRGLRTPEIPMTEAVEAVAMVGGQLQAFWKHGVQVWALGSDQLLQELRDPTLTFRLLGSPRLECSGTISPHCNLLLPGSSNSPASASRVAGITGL
Description: HPK1 Protein Degradation Assay in Human PBMC (Western Blot)
Human PBMCs (AllCells) was used in this study. Cells were thawed one day in advance and maintained in RPMI-1640 supplemented 10% fetal bovine serum (Thermo Fisher), 50 units/mL penicillin and streptomycin (Thermo Fisher) and the mixture was kept at 37° C. in a humidified atmosphere air containing 5% CO2. 3×10^6 PBMCs per well in 1 mL culture medium were seeded in the 12-well plate, and the cells were treated with an appropriate dilution series of compounds with a final concentration up to […]. After 24 h of compound incubation, the medium was aspirated, the cells were washed with PBS, and then 30 μL of 1X protein lysis buffer (Cell Signaling Technology) containing protease inhibitors (Merck) and phosphatase inhibitors (Sigma) was added. The cells were lysed. After centrifugation, the supernatants were quantified by BCA protein assay kit (Thermo Fisher). 4X loading Buffer (Thermo Fisher) was added to equal amounts of total protein from each sample and heated at 95° C. for 5 minutes. 30-50 μg of cell lysate was loaded onto a 4%-12% NuPAGE Bis-Tris Gel (Thermo Fisher) and electro-transferred to NC membranes (Thermo Fisher). The membranes were blocked for least 1 hour with blocking reagent (LI-COR), and then incubated overnight with anti-HPK1 (Cell Signaling Technology, 4472S) antibodies and as loading control anti-ß-actin (Cell Signaling Technology, 3700S) or anti-GAPDH (Cell Signaling Technology, 97166S) at 4° C. with gentle shaking. The membranes were washed three times with TBST, and incubated at least 1 hour at room temperature with anti-mouse or anti-rabbit secondary fluorescent antibody (Thermo Fisher, A32729; LI—COR, 926-32213). Then the membranes were washed three times in TBST, and one time in water. Immunoreactive bands were visualized by Odyssey CLx and analyzed by GraphPad Prism 8.

HPK1 protein [4] = biological target: T2, HPK1 protein; test: HPK1 Protein Degradation Assay in Human PBMC (FACS); format: cell-based; details: 24 h compound treatment
Description: HPK1 Protein Degradation Assay in Human PBMC (FACS)
Human PBMCs (AllCells) was used in this study. Cells were thawed one day in advance and maintained in RPMI-1640 supplemented 10% fetal bovine serum (Thermo Fisher), 50 units/mL penicillin and streptomycin (Thermo Fisher) and the mixture was kept at 37° C. in a humidified atmosphere air containing 5% CO2. 3×10^6 PBMCs per well in 95 μL culture medium were seed in the 96-well plate, and the cells were treated with an appropriate dilution series of compounds. After 24 h compound treatment, 100 μL 1xLyse/Fix buffer (BD, diluted with water, warm up in 37° C.) was added to cells and the cells were incubated at 37° C. for 10 minutes. After fixed, the cells were transferred to V-bottom plates (Corning), and washed with FACS buffer (cold 2% FBS DPBS). The cells were permeabilized by adding 100 μL pre-chilled BD Phosflow Perm Buffer III (BD) for 30 min on ice. After washed with FACS buffer twice, the cells were incubated with 50 μL antibody cocktail (HPK1(CST)(1:50), anti-human CD4 BV421 (BD)(1:25), anti-human CD8 APC(BD) (1:25)) at room temperature for 1 h. After washed with FACS buffer twice, the cells were further incubated with 50 μL secondary antibody cocktail (Biolegend) (1:50) at room temperature for 1 h. After washed with FACS buffer twice, the signals were detected by BD FACS Celesta. The data were analyzed by Excel and GraphPad Prism 8.

[5] = CD4+ T Cells, read-out: Protein degradation DC50, CD4+ T Cells
[6] = CD4+ T Cells, read-out: Protein degradation Dmax, CD4+ T Cells
[7] = CD8+ T Cells, read-out: Protein degradation DC50, CD8+ T Cells
[8] = CD8+ T Cells, read-out: Protein degradation Dmax, CD8+ T Cells

Row | SMILES | IC50 [1] [µM] | IC50 [2] [µM] | DC50 (HPK1 protein [3]) [µM] | Dmax (HPK1 protein [3]) [%] | Protein degradation DC90 (HPK1 protein [3]) [µM] | Protein degradation DC90, CD4+ T Cells (HPK1 protein [4]; CD4+ T Cells) [µM] | DC50 (HPK1 protein [4]; [5]) [µM] | Dmax (HPK1 protein [4]; [6]) [%] | Protein degradation DC90, CD8+ T Cells (HPK1 protein [4]; CD8+ T Cells) [µM] | DC50 (HPK1 protein [4]; [7]) [µM] | Dmax (HPK1 protein [4]; [8]) [%]
1 | Cc1cc(-c2c[nH]c3ncc(-c4cc(C)c5c(c4)CCN(CCNC(=O)CC4CCN(c6ccc(C7CCC(=O)NC7=O)cc6)CC4)C5)nc23)ccc1C(=O)N(C)C (stereo not drawn) [Example 8, 4-(2-(2-(2-(2-(1-(4-(2,6-dioxopiperidin-3-yl)phenyl)piperidin-4-yl)acetamido)ethyl)-8-methyl-1,2,3,4-tetrahydroisoquinolin-6-yl)-5H-pyrrolo[2,3-b]pyrazin-7-yl)-N,N,2-trimethylbenzamide] | 0.297 | 0.496 | – | – | – | – | – | – | – | – | –
2 | Cc1cc(-c2c[nH]c3ncc(-c4cc(C)c5c(c4)CCN(CCNC(=O)C4CCN(c6ccc7c(c6)C(=O)N(C6CCC(=O)NC6=O)C7=O)CC4)C5)nc23)ccc1C(=O)N(C)C (stereo not drawn) [Example 1, N-(2-(6-(7-(4-(dimethylcarbamoyl)-3-methylphenyl)-5H-pyrrolo[2,3-b]pyrazin-2-yl)-8-methyl-3,4-dihydroisoquinolin-2(1H)-yl)ethyl)-1-(2-(2,6-dioxopiperidin-3-yl)-1,3-dioxoisoindolin-5-yl)piperidine-4-carboxamide] | 0.121 | 0.879 | 0.183 | 47 | 3.805 | – | – | – | – | – | –
3 | Cc1cc(-c2cnc3[nH]cc(-c4ccc(C(=O)N(C)C[C@H](C)O)cc4)c3c2)cc2c1CN(CCC(=O)N1CCN(c3ccc(N4CCC(=O)NC4=O)cc3)CC1)CC2 [Example 9, (S)-4-(5-(2-(3-(4-(4-(2,4-dioxotetrahydropyrimidin-1(2H)-yl)phenyl)piperazin-1-yl)-3-oxopropyl)-8-methyl-1,2,3,4-tetrahydroisoquinolin-6-yl)-1H-pyrrolo[2,3-b]pyridin-3-yl)-N-(2-hydroxypropyl)-N-methylbenzamide] | 0.016 | 0.181 | – | – | – | 0.077 | 0.019 | 93 | 0.495 | 0.071 | 95
4 | Cc1cc(-c2cnc3[nH]cc(-c4ccc(C(=O)N(C)C)cc4)c3c2)cc2c1CN(CCC(=O)N1CCN(c3ccc(N4CCC(=O)NC4=O)cc3)CC1)CC2 [Example 6, 4-(5-(2-(3-(4-(4-(2,4-dioxotetrahydropyrimidin-1(2H)-yl)phenyl)piperazin-1-yl)-3-oxopropyl)-8-methyl-1,2,3,4-tetrahydroisoquinolin-6-yl)-1H-pyrrolo[2,3-b]pyridin-3-yl)-N,N-dimethylbenzamide] | 0.031 | 0.088 | – | – | – | 0.052 | 0.011 | 96 | 0.104 | 0.016 | 96
5 | Cc1cc(-c2cnc3[nH]cc(-c4ccc(C(=O)N(C)C[C@H](C)O)cc4)c3n2)cc2c1CN(CCC(=O)N1CCN(c3ccc(N4CCC(=O)NC4=O)cc3)CC1)CC2 [Example 7, (S)-4-(2-(2-(3-(4-(4-(2,4-dioxotetrahydropyrimidin-1(2H)-yl)phenyl)piperazin-1-yl)-3-oxopropyl)-8-methyl-1,2,3,4-tetrahydroisoquinolin-6-yl)-5H-pyrrolo[2,3-b]pyrazin-7-yl)—N-(2-hydroxypropyl)—N-methylbenzamide] | 0.02 | 0.307 | – | – | – | 0.118 | 0.025 | 95 | 0.388 | 0.045 | 95
6 | Cc1cc(-c2cnc3[nH]cc(-c4ccc(C(=O)N(C)C)cc4)c3n2)cc2c1CN(CCC(=O)N1CCN(c3ccc(N4CCC(=O)NC4=O)cc3)CC1)CC2 [Example 5, 4-(2-(2-(3-(4-(4-(2,4-dioxotetrahydropyrimidin-1(2H)-yl)phenyl)piperazin-1-yl)-3-oxopropyl)-8-methyl-1,2,3,4-tetrahydroisoquinolin-6-yl)-5H-pyrrolo[2,3-b]pyrazin-7-yl)-N,N-dimethylbenzamide] | 0.024 | 0.116 | – | – | – | 0.06 | 0.009 | 95 | 0.128 | 0.017 | 96
